Results from paper PMC8453635, “Piperidine Azasugars Bearing Lipophilic Chains: Stereoselective Synthesis and Biological Activity as Inhibitors of Glucocerebrosidase (GCase)” (The Journal of Organic Chemistry, 2021).

Columns and labels:
[1] = test system: human fibroblasts wild type; test: MTT cytotoxicity test; format: cell-based; conditions: prolonged incubation at 100 and 50 μM
Procedure: The MTT test was carried out using the human fibroblasts wild type at different concentrations of compound 33·HCl. Fibroblasts were grown in the presence of Dulbecco’s modified Eagle’s medium supplemented with 10% fetal bovine serum (FBS), 1% glutamine, and 1% penicillin–streptomycin, at 37 °C in controlled atmosphere with 5% CO2. For the experiments, cells were seeded at a density of 20,000 cells per well in 24-well plates and grown for 24 h (or 48 h) before adding the compound. The compound was dissolved in water; then, aliquots of these were diluted in the growth medium. To preserve sterility of solutions, these were filtered with 0.22 μm filters before adding to the dishes containing fibroblasts. Then, cells were incubated at 37 °C in 5% CO2 for 24 h (or 48 h). After this time, the media were replaced with medium containing 0.5 mg/mL of 3-(4,5-dimethylthiazol-2-yl)-2,5-diphenyltetrazolium bromide (MTT); the cells were incubated for an additional 1 h at 37 °C in 5% CO2. Finally, the number of viable cells was quantified by the estimation of their dehydrogenase activity, which reduces MTT to water-insoluble formazan. […] The quantitation was carried out measuring the absorbance of samples at 570 nm with the iMark microplate absorbance reader (BIO RAD) in a 96-well format. […]
33.HCl at different concentrations. After this time, the viability of cells was evaluated using MMT assay. […]

α-mannosidase = molecular target: T1, α-mannosidase (Homo sapiens, UniProt O00754); test: Human lysosomal glycosidase selectivity screening (leukocyte homogenate); format: biochemical; conditions: 1 mM, read-out: percentage of inhibition, α-Man
T1 construct: from leukocytes isolated from healthy donors (controls); from tissue; host or cells: leukocytes from healthy donors, sonicated homogenate
Procedure: In order to avoid undesired inhibitory side effects of a potential new drug, it has to be selective for a given target. The selectivity of the newly synthesized compounds 14, 15, and 33·HCl toward GCase was then investigated, evaluating their inhibition at 1 mM concentration toward six other lysosomal glycosidases (namely, α-and β-mannosidases, α- and β-galactosidases, α-fucosidase, and α-glucosidase) in cell homogenates (leucocytes or lymphocytes) isolated from healthy donors. […] Indeed, only moderate inhibitory activity (ca. 50%) was found toward human β-galactosidase for both piperidines 14 and 15, while negligible inhibitory activity was detected in all other cases.
(§1) The effect of 1 mM concentration of 14, 15, and 33·HCl was assayed toward six lysosomal glycosidases other than GCase, namely, α-mannosidase, β-mannosidase, α-galactosidase, β-galactosidase, α-fucosidase from leukocytes isolated from healthy donors (controls) and α-glucosidase from lymphocytes isolated from healthy donors’ flesh blood (controls). Isolated leukocytes or lymphocytes were disrupted by sonication, and a micro BCA protein assay kit (Sigma-Aldrich) was used to determine the total protein amount for the enzymatic assay, according to the manufacturer’s instructions (for more details, see the Supporting Information section).
Selectivity of compounds 14, 15 and 33.HCl towards lysosomal enzymes.
as §1, with “15” for “15,”, “33.HCl” for “33·HCl”, “towards” for “toward”, “namely:” for “namely,”, “(Sigma–Aldrich)” for “(Sigma-Aldrich)”, “manufacturer instructions. […]” for “manufacturer’s instructions (for more details, see the Supporting Information section).”
Molecular Devices). Inhibition is given with respect to the control (without azasugar). Data are mean SD (n=3). […]
Inhibition is given with respect to the control (without azasugar). Data are mean SD (n=3). […]
(1 picture or pasted object on this page, not shown here) […]
α-Fucosidase activity was measured in a flat -bottomed 96 -well plate. Azasugar solution (3 μL), 4.29 μg/μL leukocytes homogenate 1:3 (7 μL), and substrate 4 -methylumbe lliferyl α-L-fucopyranoside (1.51 mM, 20 μL, Sigma –Aldrich) in Na phosphate/citrate buffer (0.2:0.1, M/M, pH 5.5) were incubated at 37 °C for 1 h. […]
Data are mean SD (n=3). S74 […]
α-Glucosidase activity was measured in a flat –bottomed 96 well plate. Azasugar solution (3 µL), 4.29 µg/µL lymphocytes homogenate (7µL) and 20 µL of substrate solution of 4 -methylumbelliferyl -α-D-glucopyranoside (Sigma -Aldrich) in Na a cetate buffer (0.2 M, pH 4.0) were incubated for 1 h at 37 °C. The reaction was stopped by the addition of a solution of sodium carbonate (200 µL; 0.5M, pH 10.7) containing Triton X -100 (0.0025 %), and the fluorescence of 4 -methylumbelliferone released by α-glucosidase activity was measured in […]
respect to the control (without azasugar). Data are means of 3 values. […]
Figure S 48. Activity of a panel of 6 hu man lysosomal glycosidases in the presence of compounds 14, 15 and 33.HCl (1 mM ). The corresponding calculated percentage of inhibition is indicated above each bar.

T1 sequence (O00754 50-1011): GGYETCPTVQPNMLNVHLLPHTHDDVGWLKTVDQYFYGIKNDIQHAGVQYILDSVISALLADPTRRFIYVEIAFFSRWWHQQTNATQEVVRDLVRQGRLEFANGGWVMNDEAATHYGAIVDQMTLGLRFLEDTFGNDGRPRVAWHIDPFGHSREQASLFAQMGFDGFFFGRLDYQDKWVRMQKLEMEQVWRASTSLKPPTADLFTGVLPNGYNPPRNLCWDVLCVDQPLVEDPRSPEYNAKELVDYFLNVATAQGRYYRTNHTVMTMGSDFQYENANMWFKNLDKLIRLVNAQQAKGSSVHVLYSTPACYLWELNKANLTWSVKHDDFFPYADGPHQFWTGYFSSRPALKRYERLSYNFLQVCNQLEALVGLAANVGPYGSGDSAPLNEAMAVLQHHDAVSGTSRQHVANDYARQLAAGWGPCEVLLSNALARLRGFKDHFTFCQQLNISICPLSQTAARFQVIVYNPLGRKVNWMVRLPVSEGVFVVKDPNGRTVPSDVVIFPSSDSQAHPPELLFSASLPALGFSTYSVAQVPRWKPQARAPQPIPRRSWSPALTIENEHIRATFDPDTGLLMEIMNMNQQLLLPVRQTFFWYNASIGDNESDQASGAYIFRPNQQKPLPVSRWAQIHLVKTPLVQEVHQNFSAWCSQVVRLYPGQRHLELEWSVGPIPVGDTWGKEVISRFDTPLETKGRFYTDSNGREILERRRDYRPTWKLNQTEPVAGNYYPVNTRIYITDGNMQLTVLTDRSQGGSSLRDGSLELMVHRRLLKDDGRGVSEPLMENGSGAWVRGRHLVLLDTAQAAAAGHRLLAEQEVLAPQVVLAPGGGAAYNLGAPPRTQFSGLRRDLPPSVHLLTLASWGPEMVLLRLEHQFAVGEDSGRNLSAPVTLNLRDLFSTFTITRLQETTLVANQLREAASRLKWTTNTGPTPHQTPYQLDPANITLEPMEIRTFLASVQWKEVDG

CCCCCCCC[C@@H]1[C@@H](O)[C@H](O)[C@H](O)CN1C(CCCCCCC)CCCCCCC.Cl [compound 33·HCl, (2R,3R,4R,5R)-2-Octyl-1-(pentadecan-8-yl)-piperidine-3,4,5-triol Hydrochloride]
cytotoxicity (MTT test) [1]: remarkable cytotoxicity

CCCCCCCC[C@H]1[C@@H](O)[C@H](O)[C@H](O)CN1CCCCCCCC [compound 14, (2S,3R,4R,5R)-1,2-Dioctylpiperidine-3,4,5-triol]
inhibition at 1000 µM (α-mannosidase): 4%

CCCCCCCC[C@@H]1[C@@H](O)[C@H](O)[C@H](O)CN1CCCCCCCC [compound 15, (2R,3R,4R,5R)-1,2-Dioctylpiperidine-3,4,5-triol]
inhibition at 1000 µM (α-mannosidase): 7%
